According to patent US20230203081A1, “LINCOSAMIDE ANTIBIOTICS AND USES THEREOF” (President and Fellows of Harvard College, priority 2020, published 2023):

Experiments:
Type in all cases: cell-based
E. coli armA = assay: microbe, parasite or virus in culture; settings: E. coli HAV#056; Clinical, armA
Summary of the method: (§1)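 Inoculum for broth microdilution was 5×10^5 CFU/mL final, prepared from overnight 35° C blood-agar subcultures (separate handling for streptococcal and anaerobic strains); MICs read by CLSI broth microdilution or agar dilution.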

[1] = system: broad panel of different clinical isolates; assay: organism not typed
Summary of the method: as §1

E. coli ATCC 25922 = assay: MIC (broth microdilution or agar dilution, CLSI); settings: E. coli HAV#006, ATCC 25922
Summary of the method: as §1

E. coli LptD = assay: MIC (broth microdilution or agar dilution, CLSI); settings: E. coli HAV#040; LptD
Summary of the method: as §1

E. faecalis ATCC 29212 = assay: MIC (broth microdilution or agar dilution, CLSI); settings: E. faecalis HAV#005, ATCC 29212
Summary of the method: as §1

[2] = system: E. faecalis MMX 847; cErmB; assay: MIC (broth microdilution or agar dilution, CLSI); settings: E. faecalis HAV#036, MMX 847; mac-resistant, cErmB
Summary of the method: as §1

K. oxytoca Clinical = assay: MIC (broth microdilution or agar dilution, CLSI); settings: K. oxytoca HAV#450; Clinical
Summary of the method: as §1

K. pneumoniae ATCC 10031 = assay: MIC (broth microdilution or agar dilution, CLSI); settings: K. pneumoniae HAV#008, ATCC 10031
Summary of the method: as §1

S. aureus ATCC 29213 = assay: MIC (broth microdilution or agar dilution, CLSI); settings: S. aureus HAV#001, ATCC 29213, MP-549
Summary of the method: as §1

S. aureus ATCC 700699 = assay: MIC (broth microdilution or agar dilution, CLSI); settings: S. aureus HAV#202, ATCC 700699 (VISA)
Summary of the method: as §1

[3] = system: S. aureus ATCC BAA-1707 (MRSA); assay: MIC (broth microdilution or agar dilution, CLSI); settings: S. aureus HAV#016, ATCC BAA-1707; MRSA
Summary of the method: as §1

S. aureus MMX 3035 cErmA = assay: MIC (broth microdilution or agar dilution, CLSI); settings: S. aureus HAV#031, MMX 3035; cErmA
Summary of the method: as §1

S. aureus hVISA = assay: MIC (broth microdilution or agar dilution, CLSI); settings: S. aureus HAV#204, hVISA
Summary of the method: as §1

S. pneumoniae ATCC 49619 = assay: MIC (broth microdilution or agar dilution, CLSI); settings: S. pneumoniae HAV#003, ATCC 49619
Summary of the method: as §1

S. pneumoniae ATCC 6303 = assay: MIC (broth microdilution or agar dilution, CLSI); settings: S. pneumoniae HAV#351, ATCC 6303
Summary of the method: as §1

[4] = system: S. pneumoniae MMX 3028 cErmB; assay: MIC (broth microdilution or agar dilution, CLSI); settings: S. pneumoniae HAV#033; MMX 3028, cErmB
Summary of the method: as §1

[5] = system: S. pneumoniae MMX 3031 cMefA; assay: MIC (broth microdilution or agar dilution, CLSI); settings: S. pneumoniae HAV#034; MMX 3031, cMefA
Summary of the method: as §1

S. pyogenes ATCC 19615 = assay: MIC (broth microdilution or agar dilution, CLSI); settings: S. pyogenes HAV#004, ATCC 19615
Summary of the method: as §1

[6] = system: S. pyogenes MMX 946; cErmB; assay: MIC (broth microdilution or agar dilution, CLSI); settings: S. pyogenes HAV#035, MMX 946; cErmB, mac-resistant
Summary of the method: as §1

Gentamicin
MIC (E. coli armA): >256 µg/mL
MIC ([1]; A. baumannii HAV#651, Clinical): 2 µg/mL
MIC ([1]; A. baumannii HAV#652 Clinical): 16 µg/mL
MIC ([1]; A. baumannii HAV#653, Clinical): 0.5 µg/mL
MIC ([1]; A. baumannii HAV#654, Clinical): 2 µg/mL
MIC ([1]; A. baumannii HAV#655, Clinical): 2 µg/mL
MIC ([1]; A. baumannii HAV#656, Clinical): 4 µg/mL
MIC ([1]; A. baumannii HAV#657, Clinical): 4 µg/mL
MIC ([1]; A. baumannii HAV#658, Clinical): 1 µg/mL
MIC ([1]; A. baumannii HAV#659, Clinical): 32 µg/mL
MIC ([1]; A. baumannii HAV#660, Clinical): 32 µg/mL
MIC ([1]; A. baumannii HAV#661, Clinical): 1 µg/mL
MIC ([1]; A. baumannii HAV#662, Clinical): 4 µg/mL
MIC ([1]; A. baumannii HAV#663, Clinical): 0.5 µg/mL
MIC ([1]; A. baumannii HAV#664, Carbapenem R): >128 µg/mL
MIC ([1]; E. coli HAV#501, Clinical): 2 µg/mL
MIC ([1]; E. coli HAV#503, Clinical): 4 µg/mL
MIC ([1]; E. coli HAV#511, Clinical): 16 µg/mL
MIC ([1]; E. coli HAV#512, Clinical): 2 µg/mL
MIC ([1]; E. coli HAV#513, Clinical): 2 µg/mL
MIC ([1]; E. coli HAV#514, Clinical): 1 µg/mL
MIC ([1]; E. coli HAV#516, ESBL-producing): 2 µg/mL
MIC ([1]; E. faecalis HAV#251, Clinical VRE): 16 µg/mL
MIC ([1]; E. faecalis HAV#606, Clinical, VRE): >256 µg/mL
MIC ([1]; E. faecalis HAV#607, Clinical): >256 µg/mL
MIC ([1]; E. faecalis HAV#608, Clinical): >256 µg/mL
MIC ([1]; E. faecalis HAV#609, Clinical): >256 µg/mL
MIC ([1]; E. faecalis HAV#610, Clinical): >256 µg/mL
MIC ([1]; E. faecalis HAV#611, Line R & Vanco R): >128 µg/mL
MIC ([1]; E. faecalis HAV#612, Line R): >128 µg/mL
MIC ([1]; E. faecium HAV#317, Clinical): 16 µg/mL
MIC ([1]; E. faecium HAV#318, VanA, VRE): 8 µg/mL
MIC ([1]; E. faecium HAV#324, Clinical): >256 µg/mL
MIC ([1]; E. faecium HAV#327, Clinical): 8 µg/mL
MIC ([1]; E. faecium HAV#328, Clinical): >256 µg/mL
MIC ([1]; E. faecium HAV#329, Clinical): 4 µg/mL
MIC ([1]; H. influenzae HAV#376, ATCC-9007): 4 µg/mL
MIC ([1]; K. pneumoniae HAV#041, Clinical, KPC): 8 µg/mL
MIC ([1]; K. pneumoniae HAV#404, Clinical): 0.5 µg/mL
MIC ([1]; K. pneumoniae HAV#405, Clinical): 0.5 µg/mL
MIC ([1]; K. pneumoniae HAV#406, Clinical): 1 µg/mL
MIC ([1]; K. pneumoniae HAV#407, Clinical): 0.5 µg/mL
MIC ([1]; K. pneumoniae HAV#408, Clinical): 2 µg/mL
MIC ([1]; K. pneumoniae HAV#409, ESBL-producing): 0.5 µg/mL
MIC ([1]; S. aureus HAV#017, MRSA Col(Colindale, England)): 0.5 µg/mL
MIC ([1]; S. aureus HAV#051, mecA, norA, spcl, ermA, aad1, aac6′-aph2″): 2 µg/mL
MIC ([1]; S. aureus HAV#052, mecA, norA, fosB, blaZ): 1 µg/mL
MIC ([1]; S. aureus HAV#053 mecA, norA, fosB): 1 µg/mL
MIC ([1]; S. aureus HAV#054, mecA, norA, spcl, aad1, fosB, ermA, aac6′-aph2″, blaZ): 128 µg/mL
MIC ([1]; S. aureus HAV#203, Clinical (VISA)): >64 µg/mL
MIC ([1]; S. aureus HAV#216, Clinical, cfr): 8 µg/mL
MIC ([1]; S. aureus HAV#217, cfr): 4 µg/mL
MIC ([1]; S. epidermidis HAV# 275 Clinical, cfr): >64 µg/mL
MIC ([1]; S. epidermidis HAV# 276, cfr): >64 µg/mL
MIC ([1]; S. haemolyticus HAV#252, Line R & Methicillin R): >128 µg/mL
MIC (E. coli ATCC 25922): 2 µg/mL
MIC (E. coli LptD): 1 µg/mL
MIC (E. faecalis ATCC 29212): 16 µg/mL
MIC [2]: >64 µg/mL
MIC (K. oxytoca Clinical): 4 µg/mL
MIC (K. pneumoniae ATCC 10031): 0.25 µg/mL
MIC (S. aureus ATCC 29213): 1 µg/mL
MIC (S. aureus ATCC 700699): >64 µg/mL
MIC [3]: 1 µg/mL
MIC (S. aureus MMX 3035 cErmA): 1 µg/mL
MIC (S. aureus hVISA): >64 µg/mL
MIC (S. pneumoniae ATCC 49619): 16 µg/mL
MIC (S. pneumoniae ATCC 6303): 32 µg/mL
MIC [4]: 4 µg/mL
MIC [5]: 8 µg/mL
MIC (S. pyogenes ATCC 19615): 8 µg/mL
MIC [6]: 16 µg/mL
